For data set [1] the following is noted: cited from earlier work.
The subject of a further data set is Sp1. The data set can be described thus: Sp1 level in HepG2 cells, Western blot. Format: cell-based. The settings on record: 10 uM synthetic lunasin. On the procedure:
Unlike HMG-CoA reductase, SREBP activation of LDL-receptor by sterol depletion requires increased recruitment of Sp1 co-activator to a site adjacent to SREBP in the promoter/regulatory sequence of LDL-receptor gene (25). […] To test this hypothesis, the level of Sp1 was determined in lunasin-treated growth media and cholesterol-free media by Western analysis using Sp1 antibody, as follows: HepG2 cells (1×10^6) were grown from confluence in DMEM with 10% FBS for 24 hours before growth media was replaced with fresh growth media or cholesterol-free media (to activate SREBP) and treated with, or without 10 uM synthetic lunasin. After 24 hours, total protein was extracted from each treatment and 10 ug protein loaded onto 10% Tris-glycine gels, electroblotted onto nitrocellulose membrane, and immunostained with primary antibodies raised against Sp1 and actin (to show equal loading of proteins). Spot densitometer values were obtained by digital scanning and Un-Scan It software and represent data from one experiment.
On the technique in general: Immunoblotting shows a protein as a band on a membrane.

The test system of data set [2] is tumorigenic (RWPE-2) prostate cells. The settings on record: 2 uM lunasin, cited from earlier work.
Another data set has as its system HMG-CoA reductase. The data set can be described thus: HMG-CoA reductase expression in HepG2 cells, Western blot. Format: cell-based. The settings on record: 10 uM synthetic lunasin 24 h, cholesterol-free media 24 h, densitometry, FIG. 2. On the procedure:
(§1) In cell culture of HepG2 liver cells, it is possible to activate SREBP and increase the expression of HMG-CoA reductase and LDL-receptor by removing cholesterol in the growth media. This can be achieved by exposing the cells to serum-free media for 24 hours (31, 32).
(§2) In the first experiment, HepG2 cells (1×10^6) were treated with or without 10 uM synthetic lunasin in DMEM with 10% FBS for 24 hours before growth media was replaced with cholesterol-free media to activate SREBP. After 24 hours, total protein was extracted and 10 ug protein was loaded onto 10% Tris-glycine gels, electroblotted onto nitrocellulose membrane, and immunostained with primary antibodies raised against HMG-CoA reductase and actin (to show equal loading of proteins). Spot densitometer values are obtained by digital scanning and Un-Scan It software, and represent mean and standard deviation of data from three separate experiments.

Another data set concerns LDL-receptor. Kind of data set: LDL-receptor expression in HepG2 cells, Western blot. It counts as cell-based. Conditions: 10 uM synthetic lunasin 24 h, cholesterol-free media 24 h, densitometry, FIG. 3. On the procedure: as §1
as §2, with “the second” for “the first”, “media is” for “media was”, “ug proteins” for “ug protein was”, “against LDL-receptor” for “against HMG-CoA reductase”, “values were” for “values are”

The target of data set [3] is T1, histone H3 acetylation by PCAF (Homo sapiens, UniProt P68431).
T1 construct: The core histones isolated from untreated HeLa cells were used as a negative control; purchased Upstate/Millipore; host or cells: HeLa cells (histones)
Kind of data set: HAT assay with PCAF, HeLa core histones. It counts as biochemical. Conditions: FIG. 8. On the procedure:
A confirmatory experiment to determine the biological activity of digested and undigested LeSC and LeSC+SF was conducted using a different core histone template. This time we used the core histones extracted from HeLa tumor cells. Unlike the chicken erythrocyte cells, core histones from sodium butyrate treated HeLa cells are commercially available (Upstate/Millipore, Piscataway, N.J.), and can be used as a positive control for histone acetylation. The core histones isolated from untreated HeLa cells were used as a negative control (low levels of histone acetylation) and as template for the HAT assay.
The HAT bioactivity assay was conducted using acid extracted core histones from HeLa cells (Upstate/Millipore) as a template (temp (−) control) for the PCAF catalyzed HAT reaction. […] The numbers below the legend indicate relative densitometer readings normalized using immunosignal from the template (temp). […]
LeSC+SF was partially digested by mixing it with freshly prepared pancreatin solution (10 ug/mL of distilled water) in a 1:0.5, (w/w) ratio. […] However, the conditions for the partial digestion of LeSC+SF has to be determined empirically by analyzing digestion products for lunasin content (FIG. 6) and biological activity using the HAT assay (FIG. 8.)

In data set [4] the test system is non-tumorigenic (RWPE-1) prostate cells. The settings on record: 2 uM lunasin, cited from earlier work.
The test system of the next data set is p21/WAF1/Cipi. Conditions: NIH 3T3 cells pre-treated 24 hours, eight days after E1A transfection; cited from earlier work.
A further data set concerns the target deacetylated histone H4 (Homo sapiens, UniProt P62805). Conditions: cited from earlier work.
Data set [5] addresses T2, histone H3 acetylation by PCAF (Gallus gallus, UniProt P84229).
T2 construct: Core histones purified from chicken erythrocyte cells were used as templates in histone acetylase (HAT) reactions; purchased Upstate/Millipore; host or cells: chicken erythrocytes (histones)
Kind of data set: H3 histone acetyltransferase (HAT) assay with PCAF, chicken erythrocyte core histones. It counts as biochemical. The settings on record: vs untreated control, FIG. 7. From the text:
The invention further provides an in vitro assay that can be used to screen potential sources of lunasin or analogues, fragments or variants of lunasin for biologically active material useful in the methods of the present invention. In one embodiment of the present invention, core histones purified from acid-extracted proteins of HeLa cells and chicken erythrocyte cells as well as recombinant histone H3 (commercially available from Upstate/Millipore) are used as templates in histone acetylase (HAT) reactions using PCAF histone acetylase enzyme in the presence or absence of lunasin. […] Chemiluminescent signals from antibody complexes can be visualized using standard chemiluminescent reagents and exposed to Kodak BioMAX film, developed and spot densitometer measured by using digital scanner and UN-SCAN-IT software program from Silk Scientific (Orem, Utah).
Biological activity of LeSC (A), LeSC+SF (B), digested LeSC+SF (C), digested LeSC (D), digested soy protein isolate (E) and digested soy concentrate (F) was measured using the H3 histone acetyltransferase (HAT) assay (see Example 8.) Around 100 mg total protein of LeSC, LeSC+SF, soy protein isolate and soy concentrate were digested by mixing pancreatin (Sigma Life Sciences, Saint Louis, Mo.) at 1:1 (w/w) and incubating for 30 min. at 40° C. […]

The subject of another data set is C3H/T101/2 cells. The settings on record: cited from earlier work.
The test system of a further data set is E1A-transfected cells. The settings on record: cited from earlier work.
The subject of data set [6] is histone H3 and H4 acetylation. The settings on record: cited from earlier work.
The test system of another data set is skin tumor. The settings on record: mice, applied topically, ethanol as delivery system; cited from earlier work.

For the substance “lunasin: natural, synthetically or recombinantly obtained soybean lunasin polypeptide (SEQ ID 2), small subunit of a cotyledon-specific 2S albumin”, the water solubility entry in [1] was “water soluble”. Moreover, the “further increase of Sp1 levels” value with Sp1 (cholesterol-free media, FIG. 4, one experiment) is reported as roughly 60%. Further, the “Sp1 levels, lunasin-treated vs control” value in the data set on Sp1 (growth media, FIG. 4) was “not significantly different”. The “number of genes up-regulated” value in data set [2] (RWPE-2 cells, 24 hours) is recorded as “two”; in data set [4] (RWPE-1 cells, 24 hours) it was 121 genes. Moreover, the genes down-regulated result in data set [2] (tumorigenic epithelial cells) and in [4] (non-tumorigenic epithelial cells) was “No genes were down-regulated” each time. For the same substance, the “reduction of HMG-CoA reductase expression” value with HMG-CoA reductase is on record as “more than 50%”. Also, the “increase of LDL-receptor expression” value in the data set with LDL-receptor was “more than 60%”. The “H3 acetylation by PCAF (biological activity), undigested sample” value is recorded as “Significant reduction in H3 acetylation” in data set [3] and “significant reduction in H3 acetylation” in data set [5]. Also, the “number of genes with greater than twofold change in expression” value in [4] (24 hours, of 14500 genes, RWPE-1 and RWPE-2 together) is listed as 123 genes. Besides, the “increase in p21/WAF1/Cipi protein levels” value with p21/WAF1/Cipi is on record as “five-fold”. The binding to histones entry in the data set with deacetylated histone H4 is given as “binds preferentially to deacetylated histone H4”. Besides, in the data set with C3H/T101/2 cells (cells pre-treated with lunasin, exposed to DMBA and MCA), the “reduction of foci formation” value is listed as 70%. Further, the “concentration sufficient to suppress foci formation” value with C3H/T101/2 cells (single 24 hour exposure, assays lasted six weeks) was 125 nM. In addition, in the data set with E1A-transfected cells, the apoptosis entry was “induces apoptosis”. Also, the “histone H3 and H4 acetylation” value in [6] is “inhibits histone H3 and H4 acetylation”. The skin tumor formation entry with skin tumor is reported as “reduce skin tumor formation”.

The values above are taken from patent publication US9133255B2, “Products and methods using soy peptides to lower total and LDL cholesterol levels” (SOY LABS, LLC, priority 2006, dated 2015).
